# Experimental data as given in PMC5658359, “A potent small-molecule inhibitor of the DCN1-UBC12 interaction that selectively blocks cullin 3 neddylation” (Nature Communications, 2017).
# Several values for one entry are separate records, joined by “and”; a condition that tells them apart may be missing. Equal values may be shown once. Read-outs that look alike come from different tables or passages of the source. Where a SMILES comes first, the peptide text is derived from it. [ ]: non-standard residue; d: D form. Ala(6-iPr-benzothiazol-2-yl) = CC(C)c1ccc2nc(C[C@H](N)C(=O)O)sc2c1; Ala(benzothiazol-2-yl) = N[C@@H](Cc1nc2ccccc2s1)C(=O)O; Phe(3-CF3) = N[C@@H](Cc1cccc(C(F)(F)F)c1)C(=O)O; Phe(3,5-F2) = N[C@@H](Cc1cc(F)cc(F)c1)C(=O)O; Phe(3-CN) = N#Cc1cccc(C[C@H](N)C(=O)O)c1; 2Nal = N[C@@H](Cc1ccc2ccccc2c1)C(=O)O; hPhe = N[C@@H](CCc1ccccc1)C(=O)O
# Assays:
# DCN1 = DCN1 (Homo sapiens, UniProt Q96GG9); test: Competitive fluorescence polarization (FP) binding assay with probe 46, DCN1; design: Human DCN1 (residues 58–259) were cloned into a pDEST17 plasmid containing an N-terminal His6 tag; made in house; host or cells: Rosetta2 cells (E. coli); settings: for Ki: competitive FP, probe 46 5 nM, DCN1 50 nM; for times less potent than 33 in binding to DCN1: comparator 33; for times weaker (less potent) than 30 in binding to DCN1: comparator 30; for times less potent than 1 in binding to DCN1: comparator 1
# Procedure: The FP competitive binding experiments were performed to determine the binding affinities of all synthesized DCN1 inhibitors. […] Serial dilutions of DCN1 or DCN2 protein were mixed with the probe (46) to a final volume of 200 μl in the assay buffer (100 mM phosphate buffer, pH = 6.5, with 0.02% Tween-20 and 2% DMSO). The final probe concentration was 5 nM in both DCN1 and DCN2 assays. Plates were incubated at room temperature for 30 min with gentle shaking for equilibrium.
# The IC50 and Ki values of compounds were determined in competitive binding experiments. Mixtures of compounds in DMSO (4 μl) and of pre-incubated protein/probe complex solution (196 μl) in the assay buffer were added into assay plates that were incubated at room temperature for 30 min with gentle shaking. Final concentrations of DCN1 protein and fluorescent probe (46) were 50 and 5 nM, respectively. […] FP values were measured as described above. IC50 values were determined by nonlinear regression fitting of the competition curves using the dose response inhibition equation (four parameters, variable slopes) included in the Prism/GraphPad software. K i values were calculated using the methods described earlier.
# [1] = Equilibrium aqueous solubility, small-scale shake-flask method; settings: for solubility at 24 h / solubility: thermodynamic from solid
# Procedure: (§1) The equilibrium aqueous solubility of an individual compound at different pH values was determined with a small-scale shake-flask method in Eppendorf tubes. Compounds were added as powder in excess to Britton-Robinson buffer at pH 2.0 or phosphate buffer at pH 7.4 until heterogeneous suspensions were obtained. Suspensions containing excessive compound powder were sonicated in a water bath for 30 min followed by incubation at room temperature with shaking for 24 h to achieve thermodynamic equilibrium. […] Supernatants obtained were filtered using Millipore MultiScreen filter plates equipped with 0.45 µm membranes. Compound concentrations in the saturated solutions were measured by UV spectroscopy at the maximum absorption wavelengths of each compound that were pre-determined by a spectrum scan.
# [2] = thermodynamic from solid
# Procedure: as §1
# [3] = Britton-Robinson buffer, pH 2.02, aqueous buffer
# [4] = phosphate buffer, pH 7.4, aqueous buffer
# DCN1, sequence (Q96GG9 58-259): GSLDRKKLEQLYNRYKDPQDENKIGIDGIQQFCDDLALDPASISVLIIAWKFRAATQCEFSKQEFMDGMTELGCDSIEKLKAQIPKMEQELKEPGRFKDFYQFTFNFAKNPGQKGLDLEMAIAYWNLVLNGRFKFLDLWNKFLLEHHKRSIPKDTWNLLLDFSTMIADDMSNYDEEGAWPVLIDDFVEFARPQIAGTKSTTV
molecule,measurement,setting,value
CCC(=O)N[C@@H](Cc1nc2ccc(C(C)C)cc2s1)C(=O)N[C@H](CN(C)C)C1CCCCC1 [compound 41],Ki,DCN1,0.017 µM
CC[C@H](C)[C@H](NC(=O)[C@H](Cc1nc2ccc(C(C)C)cc2s1)NC(C)=O)C(N)=O [compound 29],Ki,DCN1,0.292 µM
same,solubility at 24 h,[1]; [3],1050 µM
same,solubility at 24 h,[1]; [4],1280 µM
CCC(=O)N[C@@H](Cc1nc2ccc(C(C)C)cc2s1)C(=O)N[C@H](CN)C1CCCCC1 [compound 40],Ki,DCN1,0.013 µM
same,aqueous solubility (in words),[1],good
same,solubility at 24 h,[1]; [3],4750 µM
same,solubility at 24 h,[1]; [4],1910 µM
CCC(=O)N[C@@H](Cc1nc2ccc(C(C)C)cc2s1)C(=O)NCCN [compound 37],times less potent than 33 in binding to DCN1,DCN1,> 1000 times
same,Ki,DCN1,32 ± 4.2 µM
CC[C@H](C)[C@H](NC(=O)[C@H](Cc1cccc(C#N)c1)NC(C)=O)C(=O)N[C@@H](CCCCN)C(=O)N[C@@H](CC(C)C)C(N)=O [compound 16] (Ac-[Phe(3-CN)]IKL-NH2),Ki,DCN1,> 1000 µM
CC[C@H](C)[C@H](NC(=O)[C@H](Cc1c[nH]c2ccccc12)NC(C)=O)C(=O)N[C@@H](CCCCN)C(=O)N[C@@H](CC(C)C)C(N)=O [compound 21] (Ac-WIKL-NH2),Ki,DCN1,82 µM
CC[C@H](C)[C@H](NC(=O)[C@H](Cc1nc2ccc(C(C)C)cc2s1)NC(C)=O)C(=O)N[C@@H](CCCCN)C(N)=O [compound 28],times less potent than 27 in binding to DCN1,DCN1; comparator 27,37 times
same,Ki,DCN1,0.174 ± 0.023 µM
same,solubility,"[1]; pH 2.02, aqueous buffer",> 20000 µM
same,solubility,"[1]; pH 7.4, aqueous buffer",7470 µM
CCC(=O)N[C@@H](Cc1nc2ccc(C(C)C)cc2s1)C(=O)N[C@H](CN1CCOCC1)C1CCCCC1 [compound 42],Ki,DCN1,0.044 µM
CC[C@H](C)[C@@H](CN)NC(=O)[C@@H](N)Cc1nc2ccc(C(C)C)cc2s1 [compound 32],times weaker (less potent) than 30 in binding to DCN1,DCN1,> 1000 times
same,Ki,DCN1,67 ± 8.3 µM
CC[C@H](C)[C@@H](CN)NC(=O)[C@H](Cc1nc2ccc(C(C)C)cc2s1)NC(=O)NC [compound 36],Ki,DCN1,0.149 ± 0.028 µM
CCC(=O)N[C@@H](Cc1nc2ccc(C(C)C)cc2s1)C(=O)N[C@H](CN)Cc1ccccc1 [compound 39],Ki,DCN1,0.079 µM
CCC(=O)N[C@@H](Cc1nc2ccc(C(C)C)cc2s1)C(=O)N[C@@H](C)CN [compound 38],times less potent than 33 in binding to DCN1,DCN1,> 400 times
same,Ki,DCN1,7.6 ± 0.38 µM
CC[C@H](C)[C@H](NC(=O)[C@H](Cc1ccc2ccccc2c1)NC(C)=O)C(=O)N[C@@H](CCCCN)C(=O)N[C@@H](CC(C)C)C(N)=O [compound 23] (Ac-[2Nal]IKL-NH2),times more potent than 11 in binding to DCN1,DCN1; comparator 11,11 times
CC[C@H](C)[C@H](NC(=O)[C@H](Cc1cccc(C(F)(F)F)c1)NC(C)=O)C(=O)N[C@@H](CCCCN)C(=O)N[C@@H](CC(C)C)C(N)=O [compound 17] (Ac-[Phe(3-CF3)]IKL-NH2),Ki,DCN1,> 1000 µM
Ac-MIKLFSLKQ-NH2 [compound 4],times less potent than 1 in binding to DCN1,DCN1,2–3 times
CCCC(=O)N[C@@H](Cc1nc2ccc(C(C)C)cc2s1)C(=O)N[C@H](CN)[C@@H](C)CC [compound 35],Ki,DCN1,0.27 ± 0.034 µM
CC[C@H](C)[C@@H](CN)NC(=O)[C@H](Cc1nc2ccc(C(C)C)cc2s1)NC=O [compound 31],times weaker (less potent) than 30 in binding to DCN1,DCN1,34 times
same,Ki,DCN1,2.24 ± 0.369 µM
CC[C@H](C)[C@H](NC(=O)[C@H](CCc1ccccc1)NC(C)=O)C(=O)N[C@@H](CCCCN)C(=O)N[C@@H](CC(C)C)C(N)=O [compound 12] (Ac-[hPhe]IKL-NH2),factor by which binding affinity to DCN1 is decreased,"DCN1; homophenylalanine in place of Met1, compared with 9/11",6
CC[C@H](C)[C@@H](CN)NC(=O)[C@H](Cc1nc2ccc(C(C)C)cc2s1)NC(C)=O [compound 30],Ki,DCN1,0.066 µM and 0.0664 µM
same,solubility at 24 h,"[1]; Britton-Robinson buffer, pH 2, aqueous buffer",> 20000 µM
same,solubility at 24 h,[1]; [3],> 20000 µM
same,solubility at 24 h,[1]; [4],> 20000 µM
CC[C@H](C)[C@H](NC(=O)[C@H](CCSC)NC(C)=O)C(=O)N[C@@H](CCCCN)C(N)=O [compound 10] (Ac-Met-Ile-Lys-NH2),binding to DCN1 (in words),"DCN1; at concentrations up to 1,000 µM",no appreciable binding
same,Ki,DCN1,> 1000 µM
CC[C@H](C)[C@H](NC(=O)[C@H](Cc1nc2ccc(Cl)cc2s1)NC(C)=O)C(=O)N[C@@H](CCCCN)C(=O)N[C@@H](CC(C)C)C(N)=O [compound 26],times more potent than 24 in binding to DCN1,DCN1; comparator 24,4 times
CC[C@H](C)[C@H](NC(=O)[C@H](Cc1nc2cc(Cl)ccc2s1)NC(C)=O)C(=O)N[C@@H](CCCCN)C(=O)N[C@@H](CC(C)C)C(N)=O [compound 25],times less potent than 24 in binding to DCN1,DCN1; comparator 24,17 times
CCC(=O)N[C@@H](Cc1nc2ccc(C(C)C)cc2s1)C(=O)N[C@H](CNC(=O)CN1CCOCC1)C1CCCCC1 [compound 43],Ki,DCN1,0.019 µM and 0.0185 µM
CC[C@H](C)[C@H](NC(=O)[C@H](Cc1nc2ccccc2s1)NC(C)=O)C(=O)N[C@@H](CCCCN)C(=O)N[C@@H](CC(C)C)C(N)=O [compound 24] (Ac-[Ala(benzothiazol-2-yl)]IKL-NH2),solubility,"[2]; pH 2.02, aqueous buffer",1480 µM
same,solubility,"[2]; pH 7.4, aqueous buffer",251 µM
Ac-MIKLFSLK-NH2 [compound 5],times less potent than 1 in binding to DCN1,DCN1,2–3 times
CC[C@H](C)[C@@H](CN)NC(=O)[C@H](Cc1nc2ccc(C(C)C)cc2s1)NC(=O)C(C)C [compound 34],Ki,DCN1,0.061 µM
CC[C@H](C)[C@H](NC(=O)[C@H](Cc1nc2ccc(C(C)C)cc2s1)NC(C)=O)C(=O)N[C@@H](CCCCN)C(=O)N[C@@H](CC(C)C)C(N)=O [compound 27] (Ac-[Ala(6-iPr-benzothiazol-2-yl)]IKL-NH2),times more potent than 9 in binding to DCN1,DCN1; comparator tetrapeptide 9,"> 10,000 times"
same,Ki,DCN1,0.0047 ± 0.0014 µM
same,aqueous solubility (in words),[1],poor
same,solubility,"[1]; pH 2.02, aqueous buffer",227 µM
same,solubility,"[1]; pH 7.4, aqueous buffer",31 µM
CCC(=O)N[C@@H](Cc1nc2ccc(C(C)C)cc2s1)C(=O)N[C@H](CN)[C@@H](C)CC [compound 33],Ki,DCN1,0.019 µM
Ac-MIKLFSLKQQ-NH2 [compound 3],times less potent than 1 in binding to DCN1,DCN1,2–3 times
"CC[C@H](C)[C@H](NC(=O)[C@H](Cc1cc(F)cc(F)c1)NC(C)=O)C(=O)N[C@@H](CCCCN)C(=O)N[C@@H](CC(C)C)C(N)=O [compound 20] (Ac-[Phe(3,5-F2)]IKL-NH2)",Ki,DCN1,82 ± 9.1 µM
CC[C@H](C)[C@H](NC(=O)[C@H](CCSC)NC(C)=O)C(=O)N[C@@H](CCCCN)C(=O)N[C@@H](CC(C)C)C(N)=O [compound 9] (Ac-MIKL-NH2),Ki,DCN1,50 µM
